These results are taken from ChEMBL document CHEMBL5331066, “Structure-guided design of novel HEPT analogs with enhanced potency and safety: From Isopropyl-HEPTs to Cyclopropyl-HEPTs” (Eur J Med Chem, 2023).

A short description of data set [1]: Cytotoxicity against human MT4 cells assessed as reduction in cell viability. The format is toxicity, cell-based.
Data set [2] has as its system Human immunodeficiency virus 1. Nature of the data set: Antiviral activity against HIV1 harboring Y188L mutant infected in human MT4 cells assessed as protection against virus-induced cytopathicity. The note with it: Human immunodeficiency virus 1, MT4. Format: functional, organism-based. In general terms: Damage to the host cells serves as the signal in cytopathic effect assays.

Data set [3] deals with Human immunodeficiency virus 1. Briefly: Antiviral activity against wild type HIV1 IIIB infected in human MT4 cells assessed as protection against virus-induced cytopathicity. The format is functional, organism-based. The note with it: Human immunodeficiency virus 1, IIIB.
Data set [4] relates to Human immunodeficiency virus 1. Briefly: Antiviral activity against HIV1 harboring K103 N mutant infected in human MT4 cells assessed as protection against virus-induced cytopathicity. Format: functional, organism-based. The note with it: Human immunodeficiency virus 1, MT4.
Data set [5] concerns Human immunodeficiency virus 1. Briefly: Antiviral activity against HIV1 harboring E138K mutant infected in human MT4 cells assessed as protection against virus-induced cytopathicity. The format is functional, organism-based. The note with it: Human immunodeficiency virus 1, MT4.
Data set [6] has as its system Human immunodeficiency virus 1. Nature of the data set: Antiviral activity against HIV1 harboring Y181C mutant infected in human MT4 cells assessed as protection against virus-induced cytopathicity. The format is functional, organism-based. The note with it: Human immunodeficiency virus 1, MT4.
The nature of data set [7]: Selectivity index, ratio of CC50 for cytotoxicity against human MT4 cells to EC50 for antiviral activity against wild type HIV1 IIIB infected in human MT4 cells. The format is toxicity, cell-based. As to conditions: read-out: Ratio CC50/EC50.
Data set [8] relates to Human immunodeficiency virus 1. Nature of the data set: Antiviral activity against HIV1 harboring L100I mutant infected in human MT4 cells assessed as protection against virus-induced cytopathicity. As to conditions: Human immunodeficiency virus 1, MT4. Format: functional, organism-based.
For data set [9], the target named is Human immunodeficiency virus type 1 reverse transcriptase (Human immunodeficiency virus 1, UniProt Q72547). Nature of the data set: Inhibition of wild type HIV-1 reverse transcriptase assessed as inhibition of biotin deoxyuridine triphosphate incorporation into […].

As a reminder, the CC50 is the concentration giving 50% cytotoxicity. What is called EC50 is the concentration needed to bring the measured effect to its halfway point. In general, IC50 refers to the concentration at which inhibition is half-maximal.

For `Cc1cccc(Sc2c(C3CC3)c(=O)[nH]c(=O)n2COCc2ccccc2)c1`, the half-maximal cytotoxic concentration (CC50) in data set [1] is 32500 nM. For the same compound, the concentration giving a half-maximal response (EC50) in [2] was over 32500 nM; in data set [3] it was 28 nM; in data set [4] it was 2760 nM; in [5] it was 160 nM; in [6], 2560 nM; in data set [8], 170 nM. In [7], the selectivity ratio came out at 1160.
On to `COc1ccc(OC)c(Sc2c(C3CC3)c(=O)[nH]c(=O)n2COCc2ccccc2)c1`, for which the CC50 in [1] stood at 33400 nM. Further, the half-maximal effective concentration (EC50) was over 33400 nM in data set [2]; 220 nM in [3]; over 33400 nM in [4]; 990 nM in data set [5]; 5680 nM in data set [6]; 660 nM in [8]. For the same compound, the selectivity ratio in data set [7] was 150.
Consider `O=c1[nH]c(=O)n(COCc2ccccc2)c(Sc2ccc(F)cc2)c1C1CC1`, for which the CC50 in data set [1] worked out at 38800 nM. The EC50 in data set [2] was over 40800 nM; in [3], 750 nM; in data set [4] it was over 40800 nM; in [5] it was 2030 nM; in [6], 6400 nM; in data set [8] it was 1880 nM. In [7], the selectivity ratio was 53.
Regarding `COc1ccc(Sc2c(C3CC3)c(=O)[nH]c(=O)n2COCc2ccccc2)cc1`, the CC50 in data set [1] stood at 44600 nM. Further, the EC50 in data set [3] is over 44600 nM. Also, the selectivity ratio in [7] is under 1.
For the compound `O=c1[nH]c(=O)n(COCc2ccccc2)c(Sc2ccccc2F)c1C1CC1`, the CC50 in data set [1] came to 34700 nM. Further, the concentration giving a half-maximal response (EC50) in data set [2] is over 34700 nM; in data set [3], 43 nM; in [4] it was 4990 nM; in data set [5], 350 nM; in data set [6], 4470 nM; in data set [8] it was 450 nM. In data set [9], the IC50 came to 60 nM. In [7], the selectivity ratio is 813.
Regarding `COc1cccc(OC)c1Sc1c(C2CC2)c(=O)[nH]c(=O)n1COCc1ccccc1`, the half-maximal cytotoxic concentration (CC50) in [1] was over 284000 nM. Also, the EC50 was over 284000 nM in data set [2]; 6700 nM in data set [3]; over 284000 nM in data set [4]; over 284000 nM in data set [5]; over 284000 nM in data set [6]; 144000 nM in data set [8]. In data set [7], the selectivity ratio was over 40.
Turning to `O=c1[nH]c(=O)n(COCc2ccccc2)c(Sc2cc(F)cc(F)c2)c1C1CC1`, the cytotoxic concentration (CC50) in [1] was found to be 30000 nM. The concentration giving a half-maximal response (EC50) was over 30000 nM in data set [2]; 36 nM in [3]; 3010 nM in data set [4]; 190 nM in [5]; 4270 nM in data set [6]; 430 nM in data set [8]. Besides, the IC50 in [9] was found to be 100 nM. The selectivity ratio in data set [7] was 842.
Consider `O=c1[nH]c(=O)n(COCc2ccccc2)c(Sc2ccccc2)c1C1CC1`, for which the CC50 in data set [1] was 49900 nM. Further, the EC50 is over 30700 nM in data set [2]; 39 nM in data set [3]; over 30700 nM in data set [4]; 2790 nM in data set [5]; 9830 nM in [6]; 1230 nM in data set [8]. The selectivity ratio in [7] is 1250.
With `O=c1[nH]c(=O)n(COCc2ccccc2)c(Sc2ccc(F)cc2F)c1C1CC1`, the cytotoxic concentration (CC50) in data set [1] amounted to 33500 nM. Besides, the concentration for a half-maximal effect (EC50) in data set [2] was over 33500 nM; in [3], 1200 nM; in [4], over 33500 nM; in data set [5] it was 8380 nM; in [6], at least 9440 nM; in [8], 3100 nM. Also, the IC50 in data set [9] was found to be 1800 nM. Also, in [7], the selectivity ratio was determined as 28.
In the case of `O=c1[nH]c(=O)n(COCc2ccccc2)c(Sc2cccc(F)c2F)c1C1CC1`, the cytotoxic concentration (CC50) in data set [1] was determined as 31400 nM. The concentration giving a half-maximal response (EC50) was over 31400 nM in [2]; 140 nM in data set [3]; over 3840 nM in data set [4]; 500 nM in data set [5]; over 31400 nM in [6]; 500 nM in [8]. Further, the IC50 in [9] came out at 240 nM. In addition, in data set [7], the selectivity ratio was 224.
Consider `O=c1[nH]c(=O)n(COCc2ccccc2)c(Sc2cccc(F)c2)c1C1CC1`, for which, in data set [1], the CC50 turned out to be 38800 nM. Further, the EC50 in data set [2] was over 38800 nM; in data set [3], 25 nM; in data set [4], 2990 nM; in data set [5] it was 130 nM; in [6], 3360 nM; in data set [8], 250 nM. Besides, the IC50 in data set [9] was found to be 40 nM. In [7], the selectivity ratio was 1520.
Consider `O=c1[nH]c(=O)n(COCc2ccccc2)c(Sc2ccccc2Cl)c1C1CC1`, for which the CC50 in [1] was determined as 27300 nM. Moreover, the EC50 in data set [2] is over 27300 nM; in [3], 53 nM; in [4], 9140 nM; in [5], 430 nM; in data set [6], 2940 nM; in data set [8], 630 nM. Moreover, the IC50 in data set [9] was 90 nM. In addition, the selectivity ratio in data set [7] amounted to 515.
`O=c1[nH]c(=O)n(COCc2ccccc2)c(Sc2c(F)cccc2F)c1C1CC1`: in data set [1], the CC50 was found to be 29000 nM. The 50% effective concentration (EC50) in data set [2] was over 29000 nM; in data set [3] it was 340 nM; in data set [4], over 29000 nM; in data set [5], 1510 nM; in data set [6], over 29000 nM; in data set [8] it was 2010 nM. For the same compound, in data set [9], the IC50 worked out at 720 nM. The selectivity ratio in data set [7] was 89.
For `COc1ccc(Sc2c(C3CC3)c(=O)[nH]c(=O)n2COCc2ccccc2)c(OC)c1`, the 50% cytotoxic concentration (CC50) in data set [1] is 30900 nM. Besides, the concentration for a half-maximal effect (EC50) in data set [3] is over 30900 nM. For the same compound, the selectivity ratio in data set [7] is under 1.
As to `CC(C)c1c(Sc2cccc3ccccc23)n(COCc2ccccc2)c(=O)[nH]c1=O`, the 50% cytotoxic concentration (CC50) in data set [1] turned out to be 34000 nM. The EC50 in [3] was determined as 63 nM. In addition, the selectivity ratio in data set [7] was found to be 565.
Take `COc1cc(OC)cc(Sc2c(C3CC3)c(=O)[nH]c(=O)n2COCc2ccccc2)c1`: in data set [1], the 50% cytotoxic concentration (CC50) came out at 29700 nM. Also, the EC50 in data set [2] is over 29700 nM; in data set [3] it was 770 nM; in data set [4], over 29700 nM; in data set [5], 3070 nM; in data set [6] it was 9630 nM; in data set [8], 1790 nM. Moreover, in data set [7], the selectivity ratio stood at 38.
As for `O=c1[nH]c(=O)n(COCc2ccccc2)c(Sc2cccc3ccccc23)c1C1CC1`, the 50% cytotoxic concentration (CC50) in [1] is 30700 nM. Further, the EC50 was over 177000 nM in data set [2]; 840 nM in [3]; over 177000 nM in data set [4]; 31600 nM in data set [5]; 24500 nM in data set [6]; 23100 nM in data set [8]. The selectivity ratio in [7] is 36.
In the case of `Cc1c(Sc2ccccc2)n(COCCO)c(=O)[nH]c1=O` [HEPT], in data set [1], the CC50 was determined as 740000 nM. For the same compound, in data set [3], the half-maximal effective concentration (EC50) was found to be 7000 nM. In [7], the selectivity ratio is 106.
In the case of `Cc1ccnc2c1NC(=O)c1cccnc1N2C1CC1` [NEVIRAPINE], the CC50 in [1] is over 9510 nM. Moreover, the EC50 was over 9510 nM in data set [2]; 86 nM in data set [3]; 5330 nM in [4]; 140 nM in data set [5]; 7040 nM in [6]; 1280 nM in [8].
For `Cc1cn([C@H]2C[C@H](N=[N+]=[N-])[C@@H](CO)O2)c(=O)[nH]c1=O` [ZIDOVUDINE], in [1], the half-maximal cytotoxic concentration (CC50) is over 7480 nM. The EC50 was found to be 29 nM in data set [2]; 28 nM in data set [3]; 26 nM in [4]; 20 nM in data set [6]; 16 nM in [8]. Besides, the IC50 in data set [9] was found to be 2200 nM. The selectivity ratio in data set [7] is over 309.
